Measurements taken from patent publication US12662473B2, “Inhibitors for programmed cell necrosis and preparation method therefor and use thereof” (SHANGHAI INSTITUTE OF ORGANIC CHEMISTRY, CHINESE ACADEMY OF …, priority 2019, dated 2026).
Read-outs that look alike come from different tables or passages of the source.

What was measured:
[1] = tested on: FADD−/− Jurkat cells; experiment: TNF-induced programmed cell necrosis inhibition, Cell Titer-Glo viability; type: cell-based; settings: Homo sapiens, Jurkat
Outline: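 FADD-deficient Jurkat cells (2.5×10^5/mL) were pretreated 1 h at 37 °C with compound plus Smac (50 nM as added), then stimulated with TNFα (50 ng/mL as added) for 14 h at 37 °C, 5% CO2. Viability was measured as ATP by CellTiter-Glo luminescence, with unstimulated DMSO wells as 100%. EC50 values were derived.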

[2] = tested on: L929 cells; experiment: as above; type: cell-based, mouse; settings: Mus musculus, read-out: EC50 inhibitory activity on programmed cell necrosis
Outline: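 L929 mouse fibroblasts were pretreated 1 h at 37 °C with compound plus Smac (500 nM solution added), then stimulated with TNFα (500 ng/mL solution added) for 14 h. Viability was read as ATP by CellTiter-Glo luminescence, with unstimulated DMSO wells set to 100%, and EC50 values were calculated.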

[3] = tested on: RIPK1 (S161E); experiment: Effect of RIPK1 S161E mutation on compound activity (S161E MEFs western blot and cell death with TNFα and 5z7); type: cell-based, mouse; settings: FIG. 6
Description: The biological test protocol used in this experiment was to test the effect of serine mutation at position 161 of RIPK1 to glutamic acid on the activity of the compound. The experiment was verified by two aspects. On the one hand, the mouse-derived MEFs cells in which RIPK1 (S161E) was put back after knocking out RIPK1 were treated with the compound of the present invention, and the phosphorylation state of RIPK1 was detected by western-blot; on the other hand, whether the compounds of the present invention have inhibitory effect on RIPK1-dependent apoptosis in the above-mentioned S161E cells was detected.
1. S161E MEFs cells were digested, and then diluted to 1.5×10^5/ml, and the cells were seeded into 6-well plates with 2 ml per well. The plate was placed in a cell incubator (37° C., 5% CO2) for 12 hours. 0.4 μL of compound 4-8 (50 mM in DMSO) or 0.4 μL of Nec-1s (50 μM in DMSO) was added to the wells respectively, 0.4 μL of DMSO was added to the control group. […] The BCA protein quantification kit was used to detect the protein content of each group, and PIPA lysis buffer was used to adjust the protein amount to make the final volume of 100 μL. […] The cells were incubated at room temperature for 30 min, and the luminescence value was detected to measure the level of intracellular ATP. […]

[4] = 14 h, TNFa + SM164, read-out: EC50 inhibitory activity on programmed cell necrosis
[5] = TNFa, read-out: EC50 inhibitory activity on programmed cell necrosis
[6] = L929, 14 h, L929 cells (mouse), TNFa + SM164

Row | Structure (SMILES) | EC50 [1, 4] [µM] | EC50 [1, 5] [µM] | EC50 [2, 6] [nM] | EC50 ([2]; L929, L929 cells (mouse), TNFa) [nM] | inhibition of programmed cell necrosis after mutation of serine 161 of RIPK1 to glutamic acid [3]
1 | Cc1ccc(C2CCCN2C(=O)C(C)(C)Oc2ccc(Cl)cc2)cc1 (stereo not drawn) [QY-4-8] | 0.568 | 0.091 | 139 | 50 | can still inhibit the programmed cells necrosis
2 | Cc1ccc(C2CCCN2C(=O)C(C)(C)C(=O)N2CCC(C)CC2)cc1 (stereo not drawn) [QY-14-8] | > 10 | > 10 | > 10000 | > 10000 | –
3 | Cc1ccc(C2CCCN2C(=O)C(C)(C)C(=O)N2CCN(C)CC2)cc1 (stereo not drawn) [QY-14-9] | > 10 | > 10 | > 10000 | > 10000 | –
4 | Cc1ccc(C2CCCN2C(=O)C(C)(C)Oc2cccc(C(N)=O)c2)cc1 (stereo not drawn) [QY-14-17] | > 10 | > 10 | > 10000 | > 10000 | –
5 | Cc1ccc(C2CCCN2C(=O)C(C)(C)Oc2cccc(C#N)c2)cc1 (stereo not drawn) [QY-14-24] | 0.939 | 0.022 | 66 | 15.4 | –
6 | CNC(=O)c1cccc(OC(C)(C)C(=O)N2CCCC2c2ccc(C)cc2)c1 (stereo not drawn) [QY-14-25] | > 10 | > 10 | > 10000 | > 10000 | –
7 | Cc1ccc(C2CCCN2C(=O)C(C)(C)Oc2cc(C(N)=O)ncn2)cc1 (stereo not drawn) [QY-14-27] | > 10 | > 10 | > 10000 | 8450 | –
8 | Cc1ccc(C2CCCN2C(=O)C(C)(C)C(=O)N2CCCC2)cc1 (stereo not drawn) [QY-14-29] | > 10 | > 10 | > 10000 | > 10000 | –
9 | Cc1ccc(C2CCCN2C(=O)C(C)(C)C(=O)n2cccn2)cc1 (stereo not drawn) [QY-14-30] | > 10 | > 10 | > 10000 | 4890 | –
10 | Cc1ccc(C2CCCN2C(=O)C(C)(C)C(=O)N2CCNC(=O)C2)cc1 (stereo not drawn) [QY-14-31] | > 10 | > 10 | > 10000 | > 10000 | –
11 | Cc1ccc(C2CCCN2C(=O)C(C)(C)C(=O)N2CCNCC2)cc1 (stereo not drawn) [QY-14-33] | > 10 | > 10 | > 10000 | > 10000 | –
12 | Cc1ccc(C2CCCN2C(=O)C(C)(C)Oc2ccc(C(N)=O)cc2)cc1 (stereo not drawn) [QY-14-34] | > 10 | 2.36 | > 10000 | 816 | –
13 | Cc1ccc(C2CCCN2C(=O)C(C)(C)Oc2cc(C#N)ncn2)cc1 (stereo not drawn) [QY-14-35] | > 10 | > 10 | > 10000 | > 10000 | –
14 | COc1cc(Cl)ccc1OC(C)(C)C(=O)N1N=CCC1c1cncc(F)c1 (stereo not drawn) [QY-14-40] | > 10 | > 10 | > 10000 | > 10000 | –
15 | Cc1ccc(C2CCCN2C(=O)C(C)(C)C(=O)N2CCCCC2)cc1 (stereo not drawn) [QY-14-44] | > 10 | > 10 | > 10000 | > 10000 | –
16 | Cc1ccc(C2CCCN2C(=O)C(C)(C)Oc2ccc(C#N)c(C#N)c2)cc1 (stereo not drawn) [QY-14-59] | > 10 | 4.57 | > 10000 | 467 | –
17 | Cc1ccc(C2CCCN2C(=O)C(C)(C)Oc2ccc(Cl)c(C#N)c2)cc1 (stereo not drawn) [QY-14-60] | 1.62 | 0.283 | 497 | 141 | –
18 | C#Cc1ccc(OC(C)(C)C(=O)N2CCCC2c2ccc(C)cc2)cc1 (stereo not drawn) [QY-14-68] | 0.18 | 0.0173 | 102 | 21 | –
19 | Cc1ccc(C2CCCN2C(=O)C(C)(C)Oc2ccc(C#CC(C)(C)O)cc2)cc1 (stereo not drawn) [QY-15-11] | > 10 | > 10 | > 10000 | 2840 | –
20 | Cc1ccc(C2CCCN2C(=O)C(C)(C)Oc2ccc(C#Cc3cccnc3)cc2)cc1 (stereo not drawn) [QY-15-12] | > 10 | > 10 | > 10000 | 5160 | –
21 | Cc1ccc(C2CCCN2C(=O)C(C)(C)Oc2ccc(C#CC3CCNCC3)cc2)cc1 (stereo not drawn) [QY-15-31] | > 10 | 0.818 | > 10000 | 82.4 | –
22 | [2H]C([2H])([2H])c1ccc(C2CCCN2C(=O)C(C)(C)Oc2ccc(Cl)cc2F)cc1 (stereo not drawn) [XHJ-3-22] | 1.46 | – | 302 | 40 | –
23 | CC(C)(Oc1ccc(Cl)cc1F)C(=O)N1N=CCC1c1ccccc1 (stereo not drawn) [ZSQ13-56, 2-(4-Chloro-2-fluorophenoxy)-2-methyl-1-(5-phenyl-4,5-dihydro-1H-pyrazol-1-yl)propan-1-one] | 0.424 | 0.049 | 201 | 28 | –
24 | CC(C)(Oc1ccc(Cl)cc1F)C(=O)N1N=CCC1c1ccc(F)cc1 (stereo not drawn) [ZSQ13-57] | 0.37 | 0.026 | 112 | 10 | –
